Reference: PMC8689681 (The Journal of Experimental Medicine, 2021)

Target: ADAM17 (Homo sapiens, UniProt P78536)
Assay: fluorogenic peptide
Format: biochemical

Sequence of ADAM17 (P78536 215-474 limits assumed): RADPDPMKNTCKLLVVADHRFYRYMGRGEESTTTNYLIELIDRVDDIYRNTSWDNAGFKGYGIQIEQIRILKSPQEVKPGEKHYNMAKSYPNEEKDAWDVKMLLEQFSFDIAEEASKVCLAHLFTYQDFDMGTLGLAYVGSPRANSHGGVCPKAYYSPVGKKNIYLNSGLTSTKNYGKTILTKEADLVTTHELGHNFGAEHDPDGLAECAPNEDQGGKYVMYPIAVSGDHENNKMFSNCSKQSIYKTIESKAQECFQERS

IC50: 128 ± 0.9 nM
Compound: CC(C)C[C@H](CC(=O)NO)C(=O)N[C@@H](Cc1ccc2ccccc2c1)C(=O)N[C@@H](C)C(=O)NCCN [TAPI-1]
